# From US20050250801A1, “Method of treating cancer with azaspirane compositions” (priority 2003, published 2005)
# Read-outs that look alike come from different tables or passages of the source.
# What was measured:
# Assay type in all cases: cell-based
# [1] = tested on: Various Tumor Cell Lines; test: NCI in vitro SRB tumor cell line assay, panel summary
# Description: (§1) An in vitro assay which tested the ability of N,N,-diethyl-8,8-dipropyl-2-azaspiro[4,5]decane-2-propanamine dimaleate (Compound 1) to inhibit the growth of known cancer cell lines was performed by the National Cancer Institute in accordance with standard procedures. See: Lin, Z. X., Hoult, J. R., and Raman, A. Sulphorhodamine B assay for measuring proliferation of a pigmented melanocyte cell line and its application to the evaluation of crude drugs used in the treatment of vitiligo. J Ethnopharmacol. 66: 141-150, 1999. Briefly, selected tumor cell lines were cultured in media containing five different concentrations of Compound 1. After 48 hours of continuous exposure, a sulforhodamine B (SRB) assay was used to estimate cell viability or growth via optical measurements.
# (§2) From the measurements, the following values were determined: 1) the concentration of Compound 1 at which a tumor cell growth inhibition of 50% (relative to control) occurs (GI50), 2) the concentration of Compound 1 at which no growth occurs (total growth inhibition, TGI), and 3) the concentration of Compound 1 at which the […] (LC 50). […] FIG. 6 illustrates, graphically, tumor cell growth as a function of Compound 1 concentration of the scanned tumor cell lines.
# [2] = tested on: HOP-62; test: NCI in vitro SRB assay, Non-Small Cell Lung Cancer; conditions: for CC50 / GI50: Homo sapiens
# Description: as §1, §2
# [3] = tested on: T-47D; test: NCI in vitro SRB assay, Breast Cancer
# Description: as §1, §2
# [4] = tested on: BT-549; test: NCI in vitro SRB assay, Breast Cancer
# Description: as §1, §2
# [5] = tested on: MCF7; test: NCI in vitro SRB assay, Breast Cancer; conditions: for CC50 / GI50: Homo sapiens
# Description: as §1, §2
# [6] = HOP-62, Log10 conc -4.0 Moles/L
# [7] = HOP-62, Log10 conc -5.0 Moles/L
# [8] = HOP-62, Log10 conc -6.0 Moles/L
# [9] = HOP-62, Log10 conc -7.0 Moles/L
# [10] = HOP-62, Log10 conc -8.0 Moles/L
# [11] = BT-549, Log10 conc -4.0 Moles/L
# [12] = BT-549, Log10 conc -5.0 Moles/L
# [13] = BT-549, Log10 conc -6.0 Moles/L
# [14] = BT-549, Log10 conc -7.0 Moles/L
# [15] = BT-549, Log10 conc -8.0 Moles/L
compound,measurement,setting,value
"CCCC1(CCC)CCC2(CCN(CCCN(CC)CC)C2)CC1.O=C(O)/C=C\C(=O)O.O=C(O)/C=C\C(=O)O [Compound 1, N,N,-diethyl-8,8-dipropyl-2-azaspiro[4,5]decane-2-propanamine dimaleate]","Log10 GI50, MG_MID",[1]; all cell lines of Table 2,−5.93
same,"Log10 TGI, Delta",[1]; all cell lines of Table 2,1.18
same,"Log10 TGI, MG_MID",[1]; all cell lines of Table 2,−5.45
same,"Log10 TGI, Range",[1]; all cell lines of Table 2,2.62
same,CC50,"[1]; read-out: Log10 LC50, MG_MID (converted)",8710 nM
same,Log10 TGI,[2]; HOP-62,−5.54
same,TGI,[2]; HOP-62,2910 nM
same,Mean Optical Densities,[2]; [6],0.090
same,Percent Growth,[2]; [6],−79%
same,Mean Optical Densities,[2]; [7],0.056
same,Percent Growth,[2]; [7],−87%
same,Mean Optical Densities,[2]; [8],0.693
same,Percent Growth,[2]; [8],75%
same,Mean Optical Densities,[2]; [9],0.757
same,Percent Growth,[2]; [9],93%
same,Mean Optical Densities,[2]; [10],0.711
same,Percent Growth,[2]; [10],80%
same,CC50,"[2]; HOP-62, read-out: LC50",5930 nM
same,CC50,"[2]; HOP-62, read-out: Log10 LC50 (converted)",5890 nM
same,GI50,"[2]; HOP-62, read-out: GI50",1430 nM
same,GI50,"[2]; HOP-62, read-out: Log10 GI50 (converted)",1450 nM
same,TGI,[3],4110 nM
same,GI50,"[3]; Homo sapiens, T47D",1710 nM
same,Mean Optical Densities,[3]; Log10 conc -4.0 Moles/L,0.207
same,Percent Growth,[3]; Log10 conc -4.0 Moles/L,−38%
same,Mean Optical Densities,[3]; Log10 conc -5.0 Moles/L,0.164
same,Percent Growth,[3]; Log10 conc -5.0 Moles/L,−51%
same,Mean Optical Densities,[3]; Log10 conc -6.0 Moles/L,1.024
same,Percent Growth,[3]; Log10 conc -6.0 Moles/L,81%
same,Mean Optical Densities,[3]; Log10 conc -7.0 Moles/L,1.176
same,Percent Growth,[3]; Log10 conc -7.0 Moles/L,98%
same,Mean Optical Densities,[3]; Log10 conc -8.0 Moles/L,0.837
same,Percent Growth,[3]; Log10 conc -8.0 Moles/L,59%
same,TGI,[4]; BT-549,3230 nM
same,Log10 TGI,[4]; BT-549 (so in the source),−5.39
same,Mean Optical Densities,[4]; [11],0.007
same,Percent Growth,[4]; [11],−98%
same,Mean Optical Densities,[4]; [12],0.027
same,Percent Growth,[4]; [12],−94%
same,Mean Optical Densities,[4]; [13],0.856
same,Percent Growth,[4]; [13],98%
same,Mean Optical Densities,[4]; [14],0.904
same,Percent Growth,[4]; [14],109%
same,Mean Optical Densities,[4]; [15],0.859
same,Percent Growth,[4]; [15],98%
same,CC50,"[4]; Homo sapiens, BT-549, read-out: LC50",5890 nM
same,GI50,"[4]; Homo sapiens, BT-549, read-out: GI50",1770 nM
same,GI50,"[4]; Homo sapiens, BT-549 (so in the source), read-out: Log10 GI50 (converted)",1700 nM
same,CC50,"[5]; MCF7, read-out: LC50",5600 nM
same,CC50,"[5]; MCF7, read-out: Log10 LC50 (converted)",5620 nM
same,GI50,"[5]; MCF7, read-out: GI50",1330 nM
same,GI50,"[5]; MCF7, read-out: Log10 GI50 (converted)",1320 nM
same,Log10 TGI,[5]; MCF7,−5.56
same,TGI,[5]; MCF7,2730 nM
same,Mean Optical Densities,"[5]; MCF7, Log10 conc -4.0 Moles/L",0.051
same,Percent Growth,"[5]; MCF7, Log10 conc -4.0 Moles/L",−70%
same,Mean Optical Densities,"[5]; MCF7, Log10 conc -5.0 Moles/L",0.017
same,Percent Growth,"[5]; MCF7, Log10 conc -5.0 Moles/L",−90%
same,Mean Optical Densities,"[5]; MCF7, Log10 conc -6.0 Moles/L",0.996
same,Percent Growth,"[5]; MCF7, Log10 conc -6.0 Moles/L",70%
same,Mean Optical Densities,"[5]; MCF7, Log10 conc -7.0 Moles/L",1.339
same,Percent Growth,"[5]; MCF7, Log10 conc -7.0 Moles/L",99%
same,Mean Optical Densities,"[5]; MCF7, Log10 conc -8.0 Moles/L",1.311
same,Percent Growth,"[5]; MCF7, Log10 conc -8.0 Moles/L",96%
